How the values were obtained:
Factor XIa = Factor XIa (Homo sapiens (Human), UniProt P03951); test: Factor XIa enzyme inhibition assay (dose response, fluorogenic AMC substrate); assay type: biochemical; conditions: read-out: hFXIa IC50
Summary of the method: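 Human FXIa at 0.25 nM final with 50 μM final PyroGlu-Pro-Arg-AMC in 20 mM Hepes pH 7.4, 150 mM NaCl, 0.02% Tween 20. Two-fold serial compound dilutions; fluorescence read every minute for 30 min at 30° C. IC50 from a four-parameter Hill fit.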

[1] = Caco-2 cell permeability assay; assay type: in vitro ADME, human; conditions: human, 37° C.; for Papp A→B at 60 min, 10 μM: Caco-2, apical to basolateral; for Papp B→A at 40 min, 10 μM: Caco-2, basolateral to apical
Protocol: The following procedure was used to determine the ability of a test compound to cross Caco-2 cells (human intestinal epithelial cells derived from a colorectal adenocarcinoma). The cells were seeded at 1×10^5 cells/cm^2 in 96-well Multiscreen™ plates (Millipore). Permeability assays were performed with the cells at days 21-25 post-seeding. Cells are typically used for 15 consecutive passages in culture.
This assay can be performed in either the apical to basolateral (A-B) or basolateral to apical (B-A) direction. The test compound was prepared at 10 μM in HBSS-MES (pH 6.5) or HBSS-HEPES (pH 7.4) with a final DMSO concentration of 1%. The working solution was then centrifuged and the supernatant added to the donor side. The assay plate was incubated at 37° C. with gentle shaking for 60 min or 40 min for the A-B or B-A assay, respectively. Samples were aliquoted from the donor side at time zero and the end point, and from the receiver side at the end point.
Reference compounds, propranolol (highly permeable), labetalol (moderately permeable), ranitidine (poorly permeable), and colchicine (P-glycoprotein substrate) were included in each assay.
Samples are analyzed by HPLC-MS/MS using selected reaction monitoring. The HPLC system consists of a binary LC pump with autosampler, a C-18 column, and a gradient.
The apparent permeability coefficient (Papp) of the test compound (Equation 2) and its recovery (Equation 3) are calculated as follows:
[formula] wherein A is the surface area of the cell monolayer (0.11 cm^2), C is concentration of the test compound expressed as peak area, D denotes donor, and R is receiver. “0”, “mid,” and “end” denote time at zero, mid-point, and end of the incubation, respectively. Δt is the incubation time. V is the volume of the donor or receiver.
This is most likely due to non-specific binding or degradation.

[2] = Aqueous solubility in PBS by HPLC-UV/VIS; assay type: physicochemical; conditions: PBS pH 7.4, 2% DMSO, 24 h at room temperature; for solubility at 24 h: phosphate buffered saline, aqueous buffer, kinetic from dmso stock
Protocol: The following procedure was used to determine the aqueous solubility of a test compound in phosphate buffered saline (PBS-NaCl 137 mM, KCl 2.7 mM, Na2HPO4 8.1 mM, KH2PO4 1.5 mM, pH 7.4) in 96-well plate format by HPLC-UV/VIS analysis. The test compound was prepared at 200 μM in PBS from a 10 mM DMSO stock solution. The final DMSO concentration was 2%. The PBS buffer samples were mixed thoroughly followed by incubation at room temperature for 24 h. At the end of the incubation, the PBS buffer samples were centrifuged and supernatants analyzed by HPLC. The aqueous solubility (μM) of the test compound in PBS was determined by comparing the peak area of the principal peak in the calibration standard (200 μM) with the peak area of the corresponding peak in each of the PBS samples. The range of the assay was approximately 0.5 μM to 200 μM. The reference compounds used in each assay were metoprolol, rifampicin, ketoconazole, phenytoin, haloperidol, simvastatin, diethylstilbestrol, and tamoxifen ranking from fully soluble (200 μM) to poorly soluble (<1 μM).

Sequence of Factor XIa (P03951 388-625): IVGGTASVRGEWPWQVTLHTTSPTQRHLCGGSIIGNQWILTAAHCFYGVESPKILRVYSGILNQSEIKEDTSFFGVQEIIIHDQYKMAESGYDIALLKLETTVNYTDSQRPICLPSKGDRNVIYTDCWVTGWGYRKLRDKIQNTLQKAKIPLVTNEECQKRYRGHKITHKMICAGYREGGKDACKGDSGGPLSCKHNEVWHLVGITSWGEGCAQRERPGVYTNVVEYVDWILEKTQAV
Sequence of Factor XIa (P03951 19-387 partner): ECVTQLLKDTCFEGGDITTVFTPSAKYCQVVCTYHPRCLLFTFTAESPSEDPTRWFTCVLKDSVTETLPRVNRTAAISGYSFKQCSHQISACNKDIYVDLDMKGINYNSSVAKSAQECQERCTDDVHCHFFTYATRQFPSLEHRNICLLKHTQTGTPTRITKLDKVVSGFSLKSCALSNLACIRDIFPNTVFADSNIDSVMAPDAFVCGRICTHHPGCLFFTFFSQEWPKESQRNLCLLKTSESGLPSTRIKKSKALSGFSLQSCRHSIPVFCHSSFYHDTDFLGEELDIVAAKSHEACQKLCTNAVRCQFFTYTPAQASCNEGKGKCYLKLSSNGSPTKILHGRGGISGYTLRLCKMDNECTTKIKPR

Row | Molecule | IC50 (Factor XIa) | Papp A→B at 60 min, 10 μM [1] | Papp B→A at 40 min, 10 μM [1] | solubility at 24 h [2] | Aqueous Solubility (uM, in PBS) [2]
1 | CC[C@@H](NC(=O)N1C(=O)[C@H](Cc2ccnc(N)c2)[C@H]1C(=O)N(C)c1ccn(C)n1)c1ccccc1 [Compound 1-3, (2S,3R)-3-((2-aminopyridin-4-yl)methyl)-N2-(1-methyl-1H-pyrazol-3-yl)-N1-((R)-1-phenylpropyl)-N2-methyl-4-oxoazetidine-1,2-dicarboxamide] | < 0.01 µM | < 10 ×10⁻⁶ cm/s | 31 to 50 ×10⁻⁶ cm/s | > 100 µM | 
2 | CC[C@@H](NC(=O)N1C(=O)[C@H](Cc2ccnc(N)c2)[C@H]1C(=O)N(C)c1ccnn1C)c1cccc(Cl)c1 [Compound 1-4, (2S,3R)-3-((2-aminopyridin-4-yl)methyl)-N2-(1-methyl-1H-pyrazol-5-yl)-N1-((R)-1-(3-chlorophenyl)propyl)-N2-methyl-4-oxoazetidine-1,2-dicarboxamide] | < 0.01 µM | 11 to 30 ×10⁻⁶ cm/s | 11 to 30 ×10⁻⁶ cm/s | > 100 µM | 
3 | CC[C@@H](NC(=O)N1C(=O)[C@H](Cc2ccnc(N)c2)[C@H]1C(=O)N(C)c1cscn1)c1ccccc1 [Compound 1-8, (2S,3R)-3-((2-aminopyridin-4-yl)methyl)-N2-(4-thiazolyl)-N1-((R)-1-phenylpropyl)-N2-methyl-4-oxoazetidine-1,2-dicarboxamide] | < 0.01 µM | < 10 ×10⁻⁶ cm/s | 31 to 50 ×10⁻⁶ cm/s | > 100 µM | 
4 | CC[C@@H](NC(=O)N1C(=O)[C@H](Cc2ccnc(N)c2)[C@H]1C(=O)N(C)c1cccs1)c1ccccc1 [Compound 1-10, (2S,3R)-3-((2-aminopyridin-4-yl)methyl)-N2-(thiophen-2-yl)-N1-((R)-1-phenylpropyl)-N2-methyl-4-oxoazetidine-1,2-dicarboxamide] | < 0.01 µM | 11 to 30 ×10⁻⁶ cm/s | 11 to 30 ×10⁻⁶ cm/s | > 100 µM | 
5 | CC[C@@H](NC(=O)N1C(=O)[C@H](Cc2ccnc(N)c2)[C@H]1C(=O)N(C)c1nccn1C)c1ccccc1 [Compound 1-13, (2S,3R)-3-((2-aminopyridin-4-yl)methyl)-N2-(1-methyl-1H-imidazol-2-yl)-N1-((R)-1-phenylpropyl)-N2-methyl-4-oxoazetidine-1,2-dicarboxamide] | < 0.01 µM | < 10 ×10⁻⁶ cm/s | 11 to 30 ×10⁻⁶ cm/s | > 100 µM | 
6 | CC[C@@H](NC(=O)N1C(=O)[C@H](Cc2cc(C)nc(N)c2)[C@H]1C(=O)N(C)c1cnn(C)c1)c1cccc(Cl)c1 [Compound 1-15, (2S,3R)-3-((2-amino-6-methylpyridin-4-yl)methyl)-N2-(1-methyl-1H-pyrazol-4-yl)-N1-((R)-1-(3-chlorophenyl)propyl)-N2-methyl-4-oxoazetidine-1,2-dicarboxamide] | 0.01 to 0.1 µM | < 10 ×10⁻⁶ cm/s | 11 to 30 ×10⁻⁶ cm/s | > 100 µM | 
7 | CC[C@@H](NC(=O)N1C(=O)[C@H](Cc2ccnc(N)c2)[C@H]1C(=O)N(C)c1cscn1)c1cccc(Cl)c1 [Compound 1-17, (2S,3R)-3-((2-aminopyridin-4-yl)methyl)-N2-(4-thiazolyl)-N1-((R)-1-(3-chlorophenyl)propyl)-N2-methyl-4-oxoazetidine-1,2-dicarboxamide] | < 0.01 µM | 11 to 30 ×10⁻⁶ cm/s | 11 to 30 ×10⁻⁶ cm/s | > 100 µM | 
8 | CC[C@@H](NC(=O)N1C(=O)[C@H](Cc2ccnc(N)c2)[C@H]1C(=O)N(C)c1cnn(C)c1)c1ccc(C)nc1 [Compound 1-18, (2S,3R)-3-((2-aminopyridin-4-yl)methyl)-N2-(1-methyl-1H-pyrazol-4-yl)-N1-((R)-1-(6-methylpyridin-3-yl)propyl)-N2-methyl-4-oxoazetidine-1,2-dicarboxamide] | 0.01 to 0.1 µM | < 10 ×10⁻⁶ cm/s | < 10 ×10⁻⁶ cm/s | > 100 µM | 
9 | CC[C@@H](NC(=O)N1C(=O)[C@H](Cc2cc(C)nc(N)c2)[C@H]1C(=O)N(C)c1ccn(C)n1)c1cccc(C)c1 [Compound 1-22, (2S,3R)-3-((2-amino-6-methylpyridin-4-yl)methyl)-N2-(1-methyl-1H-pyrazol-3-yl)-N1-((R)-1-(3-methylphenyl)propyl)-N2-methyl-4-oxoazetidine-1,2-dicarboxamide] | < 0.01 µM | < 10 ×10⁻⁶ cm/s | 11 to 30 ×10⁻⁶ cm/s | > 100 µM | 
10 | CN(C(=O)[C@@H]1[C@@H](Cc2ccnc(N)c2)C(=O)N1C(=O)N[C@@H](C1CCCCC1)C(F)(F)F)c1ccn(C)n1 [Compound 1-32, (2S,3R)-3-((2-aminopyridin-4-yl)methyl)-N2-(1-methyl-1H-pyrazol-3-yl)-N1-((S)-1-cyclohexyl-2,2,2-trifluoroethyl)-N2-methyl-4-oxoazetidine-1,2-dicarboxamide] | < 0.01 µM | 11 to 30 ×10⁻⁶ cm/s | 11 to 30 ×10⁻⁶ cm/s | > 100 µM | 
11 | CC[C@@H](NC(=O)N1C(=O)[C@H](Cc2ccnc(N)c2)[C@H]1C(=O)N(C)c1nccn1C)c1cccc(Cl)c1 [Compound 1-35, (2S,3R)-3-((2-aminopyridin-4-yl)methyl)-N2-(1-methyl-1H-imidazol-2-yl)-N1-((R)-1-(3-chlorophenyl)propyl)-N2-methyl-4-oxoazetidine-1,2-dicarboxamide] | < 0.01 µM | < 10 ×10⁻⁶ cm/s | 31 to 50 ×10⁻⁶ cm/s | > 100 µM | 
12 | CC[C@@H](NC(=O)N1C(=O)[C@H](Cc2ccnc(NC)c2)[C@H]1C(=O)N(C)c1nccn1C)c1cccc(Cl)c1 [Compound 1-41, (2S,3R)-3-((2-methylaminopyridin-4-yl)methyl)-N2-(1-methyl-1H-imidazol-2-yl)-N1-((R)-1-(3-chlorophenyl)propyl)-N2-methyl-4-oxoazetidine-1,2-dicarboxamide] | 0.01 to 0.1 µM | < 10 ×10⁻⁶ cm/s | 31 to 50 ×10⁻⁶ cm/s | > 100 µM | 
13 | CC[C@@H](NC(=O)N1C(=O)[C@H](Cc2cc(C)nc(N)c2)[C@H]1C(=O)N(C)c1nccn1C)c1cccc(Cl)c1 [Compound 1-43, (2S,3R)-3-((2-amino-6-methylpyridin-4-yl)methyl)-N2-(1-methyl-1H-imidazol-2-yl)-N1-((R)-1-(3-chlorophenyl)propyl)-N2-methyl-4-oxoazetidine-1,2-dicarboxamide] | < 0.01 µM | < 10 ×10⁻⁶ cm/s | 11 to 30 ×10⁻⁶ cm/s | > 100 µM | 
14 | CC[C@@H](NC(=O)N1C(=O)[C@H](Cc2cc(C)nc(NC)c2)[C@H]1C(=O)N(C)c1nccn1C)c1ccccc1 [Compound 1-45, (2S,3R)-3-((2-methylamino-6-methylpyridin-4-yl)methyl)-N2-(1-methyl-1H-imidazol-2-yl)-N1-((R)-1-phenylpropyl)-N2-methyl-4-oxoazetidine-1,2-dicarboxamide] | 0.01 to 0.1 µM | 11 to 30 ×10⁻⁶ cm/s | 31 to 50 ×10⁻⁶ cm/s | > 100 µM | 
15 | (2S,3R)-3-((2-amino-6-methylpyridin-4-yl)methyl)-N2-(1-methyl-1H-imidazol-2-yl)-N1-((R)-1-(3-fluorophenyl)propyl)-N2-methyl-4-oxoazetidine-1,2-dicarboxamide [Compound 1-120] | < 0.01 µM |  |  |  | W (“W” indicates > 100 μM)

— patent publication US11691962B2 (eXIthera Pharmaceuticals, Inc., priority 2018, dated 2023)
